According to US7645740B2, “Peptide sequence found in Laminin 5 for treating skin impairments” (Laboratoires d'Anjou Centre National de la Recherche …, priority 2004, dated 2010):

How the values were obtained:
[1] = tested on: HT1080 cells (human fibrosarcoma); experiment: Cell adhesion test to immobilized peptides, HT1080; format: cell-based
Procedure: Dose-dependent cell adhesion of cell line HT1080 to various peptides 1, 2 and 3. The peptides were immobilized in 96-well plates at the concentrations given on the abscissa. 8×10^4 cells were deposited in each well and plates were incubated at 37° C. for 1 hour. After washing, attached cells were fixed and cell adhesion was measured as described in the methodology section.
Dose-dependent cell adhesion of HT1080 cells to various peptide TALRIRATYGEY (SEQ ID NO. 1). The peptides were immobilized in 96-well plates in the quantities given on the abscissa. 8×10^4 cells and 15×10^4 cells were deposited in each well and plates were incubated at 37° C. for 1 hour. After washing, attached cells were fixed and cell adhesion was measured as described in the methodology section. Cells were observed by phase contrast microscopy then photographed. Bar =50 μm
Peptides 1, 2 and 3 were used for the cell adhesion experiments. A range of 7 decreasing concentrations (100 micrograms/ml, 50 micrograms/ml, 25 micrograms/ml, 12.5 micrograms/ml, 6.25 micrograms/ml, 3.125 micrograms/ml and 1.562 micrograms/ml) was made up by successive dilution in PBS (Phosphate Buffer Saline, KH2PO4 1.54 mM; Na2HPO4 1.42 mM; NaCl-131 mM) using a starting solution at a concentration of 1 mg/ml. These solutions were immediately distributed onto a 96-well culture plate (Greinher, Dutscher, Brumath, France) at a rate of 100 μl per well. Plates were then placed at +4° C. for 16 to 18 hours. The solutions were then removed by turning the plates and each well was saturated with a 1% PBS-BSA solution (bovine serum albumin). Three additional wells without the substrate underwent the same treatment and were used as blanks.
Epithelial cells were detached from the culture dishes using a trypsin/EDAT solution (0.05-0.02%) then suspended in DMEM medium without additives for the cell lines and in KBM-2 without additive for human keratinocytes. The number of seeded cells per well is given in the graphs (50,000 to 100,000 cells per well).
After cell seeding, the multi-well plates were placed in an incubator at 37° C. under 5% CO2. After incubation for 30 to 60 minutes, cells were observed under a phase contrast microscope in order to verify that the test was conducted correctly. The adhesion medium was then removed and each well was washed in a sterile PBS solution to remove non-adhering cells. The remaining cells, attached to the substrate, were then fixed using a solution of 1% glutaraldehyde in PBS for 15 minutes. The glutaraldehyde solution as removed and the cells were stained with a crystal violet solution diluted to 1% in distilled water for 30 minutes.
After rinsing in water several times, cells were permeabilized by means of a 0.02% triton solution for 15 minutes in order to solubilize the crystal violet. Absorbances were read at 570 nm using an ELISA plate reader (MR500, Dynatech, Guernsey, Channel Islands). Each experimental point was carried out in triplicate. The blank value represented the mean absorbance of 3 control wells (BSA). […] We then calculated the mean for the three absorbance values for each of the triplicate samples.
The results are presented in the form of a graph with the absorbance values on the ordinate and the various substrate concentrations on the abscissa. […]
A second approach was taken in order to determine the minimum quantity of active peptide and the number of adhering cells was increased in order to obtain a confluent cell network. […]

HT1080 cells = experiment: Cell proliferation test (XTT), HT1080; format: cell-based, human; conditions: HT1080, peptide 0.5% and 1%, serum-free medium, 5th hour
Procedure: (§1) HT1080 cells (A) and HBL100 cells (B) were seeded in 96-well plates at a rate of 10,000 cells per well. After 24 hours, the culture medium was removed and replaced with serum-free medium containing the peptide quantities given in the graphs and reagent XTT. The plates were then placed in the incubator at 37° C. and absorbance readings were taken at 1 h, 2 h, 3 h, 4 h and 5 h. Peptide-free controls were carried out on the same plate.
(§2) The effect of the peptide on cell proliferation was analysed with the aid of a calorimetric test (Cell Proliferation Kit XTT, Roche Diagnostics, Meylan, France) on the cells use for the cell adhesion test, i.e. HT1080, A431, HBL100 cells and normal human keratinocytes from young and elderly individuals.
(§3) The chemical reaction used in the test is based on the production of NADPH by living cells, leading to the reduction of yellow tetrazolium XTT salts to orange formazan salts. Absorbance was measured at 490 nm using an ELISA plate reader. Cells were seeded in 96-well plates at a rate of 10,000 cells per well (6 wells/condition) in KBM-2 culture medium. After 24 hours in culture at 37° C. with 5% CO2, the culture medium was removed and replaced with serum-free medium containing the peptide quantities given in the graphs and the test reagent. The plates were then placed in the incubator at 37° C. and absorbance readings were taken at 1 h, 2 h, 3 h, 4 h and 5 h. […]

HBL100 cells = experiment: Cell proliferation test (XTT), HBL100; format: cell-based, human; conditions: HBL100, peptide 0.5% and 1%, serum-free medium, 5th hour
Procedure: as §1, §2, §3

NHK-young = experiment: Cell proliferation test (XTT), NHK-young; format: cell-based, human; conditions: peptide 0.05% and 0.1%, 5th hour
Procedure: as §1, with “NHK-10 years” for “HT1080 cells (A)”, “NHK-71 years” for “HBL100 cells (B)”
as §2, §3

For “TALRIRATYGEY (Human laminin 5) [Peptide 1]”, the “cell adhesion to immobilized peptide” value ([1]; HT1080, 0 to 10 micrograms immobilized peptide, 8×10^4 cells per well, 1 hour 37° C., absorbance 570 nm) was “led to cell adhesion”, the “immobilized peptide quantity at which adhesion occurred” value ([1]; HT1080, FIG. 3) was 0.15 micrograms and the “immobilized peptide quantity at which maximum adhesion was achieved” value ([1]; HT1080, FIG. 3) was 0.15 micrograms. For the same sequence, the “mean increase in cell proliferation compared to the control” value (HT1080 cells) was 8%, the “mean increase in cell proliferation compared to the control” value (HBL100 cells) was 8% and the “mean increase in proliferation compared to the control” value (NHK-young) was ≤ 7%.
